# According to patent US20260345547A1, “USE OF DIHYDROQUERCETIN IN TREATING OCULAR SURFACE DISEASES” (HE UNIVERSITY SCHOOL OF CLINICAL MEDICINE, priority 2022, published 2026):
# Several values for one entry are separate records, joined by “and”; a condition that tells them apart may be missing. Identical values can stand only once.
# Legend:
# [1] = test system: HCE cells (H2O2-induced oxidative damage); test: MTS assay: anti-oxidative damage effect on HCE cells with H2O2-induced damage; assay type: cell-based, human
# Experimental: (§1) Human corneal epithelial cells were purchased from the American Type Culture Collection (ATCC). The cell medium used was high-sugar DMEM medium supplemented with 10% (V/V) fetal bovine serum, 100 U/mL penicillin, and 100 μg/mL gentamicin. The cells were cultured in an incubator containing 5% carbon dioxide at 37° C. Cells in the logarithmic growth phase were seeded into a 96-well plate at a density of 1.5×10^5 cells/mL, with 100 μL per well and 6 replicate wells per group. The cells were grouped into a normal cell group, a hydrogen peroxide model group, and intervention groups treated with dihydroquercetin at various concentrations. The assay was performed using an MTS kit (e.g., Promega), and absorbance was measured at 490 nm using a microplate reader.
# (§2) Survival rate=survival rate of each group/survival rate of normal cell group×100%
# Human corneal epithelial cells were purchased from the American Type Culture Collection (ATCC). The cell medium used was high-sugar DMEM medium supplemented with 10% (V/V) fetal bovine serum, 100 U/mL penicillin, and 100 μg/mL gentamicin. The cells were cultured in an incubator containing 5% carbon dioxide at 37° C. Cells in the logarithmic growth phase were seeded into a 96-well plate at a density of 1.5×10^5 cells/mL, with 100 μL per well and 6 replicate wells per group. After 24 h, the cells were treated with H2O2 or dihydroquercetin according to the experimental purpose. […] To measure the colorimetric results, the absorbance value of each well was read at the wavelength of 490 nm using an enzyme-linked immunosorbent assay reader. The results were recorded, and a cell growth curve was plotted with time as the abscissa and absorbance value as the ordinate.
# The experiment included 8 groups: a normal control group, a H2O2 model group, and intervention groups treated with various concentrations of dihydroquercetin (0.1-200 μM)+H2O2. […] The survival rate of cells in each group was assessed by the MTS assay to evaluate the protective effect of dihydroquercetin against oxidative damage of HCE cells.
# [2] = test system: human corneal epithelial (HCE) cells; test: MTS assay: survival rate of HCE cells treated with H2O2 (damage model); assay type: cell-based; conditions: 300 μM H2O2, 24 h, relative to normal cell group
# Experimental: as §1, with “reader. […]” for “reader.”
# Human corneal epithelial cells were purchased from the American Type Culture Collection (ATCC). […] To measure the colorimetric results, the absorbance value of each well was read at the wavelength of 490 nm using an enzyme-linked immunosorbent assay reader. The results were recorded, and a cell growth curve was plotted with time as the abscissa and absorbance value as the ordinate.
# HCE cells were subcultured and seeded at 1.5×10^5 cells/mL, with 100 μL per well. […] To measure the colorimetric results, the absorbance value of each well was read at the wavelength of 490 nm using an enzyme-linked immunosorbent assay reader. […]
# [3] = test system: corneal neovascularization model in rabbits; test: Corneal neovascularization after corneal alkali burn in rabbits; assay type: in vivo, New Zealand rabbits; conditions: 50 μL twice daily, ocular, 14 days after treatment, compared to model group; for corneal neovascularization area: P<0.01
# Description: […] 3-month-old healthy New Zealand rabbits, half male and half female, were randomly assigned to six groups, with each group containing six rabbits. The groups were designated as blank control group (N), model control group (M), positive drug group (LEV), low concentration dihydroquercetin group (E1), high concentration dihydroquercetin group (E2) and solvent control group (R). Identification was marked on the rabbits' ears and cage cards, which included details such as the experiment name, experiment number, group designation, administration dosage, and administration schedule.
# In this experiment, the corneal neovascularization model in rabbits was established using a chemical injury method. The rabbits were generally anesthetized with an intravenous injection of 1% pentobarbital sodium administered via the marginal ear vein. […] A 6 mm diameter filter paper was soaked in a 1 mol/L NaOH solution for 1 minute. The soaked filter paper was then applied to the center of the cornea for 30 seconds, after which it was removed. The ocular surface and conjunctival sac were subsequently rinsed with physiological saline for 1 minute. Following the modeling procedure, levofloxacin was applied as eye drops to the modeled eye to prevent postoperative infection.
# The route of administration was ocular, and treatment commenced the day before modeling. No drug was administered to the blank control group or model control group. In the positive drug group, 50 μL of levofloxacin was applied to the conjunctival sac. In the low concentration group, 50 μL of a 0.03% dihydroquercetin solution was applied, while in the high concentration group, 50 μL of a 0.3% dihydroquercetin solution was applied. All treatments were administered twice daily at 9:00 a.m. and 3:00 p.m.
# Fourteen days after treatment, ocular surface inflammation and neovascularization were assessed in each experimental group. The area of neovascularization was imaged, recorded, and subsequently quantified. Data were analyzed statistically using GraphPad Prism 8.0 software.
# mouse model of dry eye [4] = test: Tear secretion amount (phenol red cotton thread) in dry eye mice; assay type: in vivo, C57/BL6 mice; conditions: 5 μL drops twice daily, ocular, day 14 of modeling, compared to model control group, P<0.001
# Description: (§3) Out of 50 healthy 8-week-old female C57/BL6 mice, 30 were selected for the experiment. Five mice were randomly assigned to each group, resulting in a total of six groups: blank control group (N), model group (M), positive drug group (CsA), low concentration traditional Chinese medicine group (SL), medium concentration traditional Chinese medicine group (SM), and high concentration traditional Chinese medicine group (SH). During grouping, identification was marked on the mice's tails and cage cards, which included details such as the experiment name, experiment number, group designation, administration dosage, and administration schedule.
# (§4) In this experiment, a mouse model of dry eye was established using an intelligent dry environment control system in combination with scopolamine injection. A two-step dehumidification method was used to control the humidity of the environment during the modeling process. Initially, a temperature-adjustable industrial dehumidifier was used to reduce the room humidity to 40%±5%. […]
# The mice were restrained without anesthesia. […] The thread was then placed on a printable ruler, and the length of the red-stained portion was measured and recorded. The data were analyzed statistically using GraphPad Prism 8.0 software. […]
# mouse model of dry eye [5] = test: Tear film breakup time in dry eye mice; assay type: in vivo, C57/BL6 mice; conditions: treatment groups (0.03% and 0.3%), ocular; day 14 of modeling; compared to model control group, P<0.05
# Description: as §3, §4
# The mice were restrained without anesthesia, and sodium fluorescein solution was instilled into their conjunctival sacs. […] The time until the appearance of a block spot due to tear film breakup was recorded. […] The data were analyzed statistically using GraphPad Prism 8.0 software. […]
# mouse model of dry eye [6] = test: Sodium fluorescein staining of cornea (corneal epithelial damage) in dry eye mice; assay type: in vivo, C57/BL6 mice; conditions: day 14 of modeling
# Description: as §3
# In this experiment, a mouse model of dry eye was established using an intelligent dry environment control system in combination with scopolamine injection. A two-step dehumidification method was used to control the humidity of the environment during the modeling process. […]
# The corneal morphology of experimental mice in each group was observed before modeling and 14 days after modeling. […] The sodium fluorescein-stained corneas of the mice were then illuminated with cobalt blue light, observed, imaged and recorded with a slit lamp. […] Sodium fluorescein residues on the corneal surface was scored and recorded. The data were analyzed statistically using GraphPad Prism 8.0 software.
# HCE cells = test: MTS assay: proliferative and toxic effects of dihydroquercetin on HCE cells; assay type: cell-based, human; conditions: 24 h; for cell viability of HCE cells: compared to control group
# Experimental: as §1, §2
# Human corneal epithelial cells were purchased from the American Type Culture Collection (ATCC). The cell medium used was high-sugar DMEM medium supplemented with 10% (V/V) fetal bovine serum, 100 U/mL penicillin, and 100 μg/mL gentamicin. The cells were cultured in an incubator containing 5% carbon dioxide at 37° C. Cells in the logarithmic growth phase were seeded into a 96-well plate at a density of 1.5×10^5 cells/mL, with 100 μL per well and 6 replicate wells per group. After 24 h, the cells were treated with H2O2 or dihydroquercetin according to the experimental purpose. For color development, 20 μL of MTS solution was added to each well, and the cells were incubated for another 2-4 h. To measure the colorimetric results, the absorbance value of each well was read at the wavelength of 490 nm using an enzyme-linked immunosorbent assay reader. The results were recorded, and a cell growth curve was plotted with time as the abscissa and absorbance value as the ordinate.
# Various concentrations of dihydroquercetin (0.01-600 μM) were applied to HCE cells, and 6 replicate wells were set for each group to ensure the reliability and accuracy of the experimental data. The proliferative effect of the drug on the cells was then assessed.
structure (smiles),measurement,setting,value
"OO [H2O2, hydrogen peroxide, reference compound]","cell survival rate, H2O2 model group","[1]; 300 μM H2O2, compared to control group, P<0.001",lower
same,viability at 300 µM,[2],49%
O=C1c2c(O)cc(O)cc2O[C@H](c2ccc(O)c(O)c2)[C@H]1O [dihydroquercetin],new blood vessels (slit lamp morphology),"[3]; high concentration, 0.3%",fewer new blood vessels
same,corneal neovascularization area,"[3]; high concentration, 0.3%",smaller
same,new blood vessels (slit lamp morphology),"[3]; low concentration, 0.03%",fewer new blood vessels
same,corneal neovascularization area,"[3]; low concentration, 0.03%",smaller
same,tear secretion,"mouse model of dry eye [4]; high concentration group (E2), 0.3%",significantly increased
same,tear secretion,"mouse model of dry eye [4]; low concentration group (E1), 0.03%",significantly increased
same,concentration offering protection against H2O2-induced oxidative stress damage in HCE cells,"[1]; 300 μM H2O2, MTS assay",25 to 200 µM
same,"cell survival rate, dihydroquercetin + H2O2","[1]; 25-200 μM with 300 μM H2O2, compared to H2O2 model group, P<0.01",higher
same,tear film breakup time,mouse model of dry eye [5],increased significantly
same,sodium fluorescein staining of cornea (morphology),mouse model of dry eye [6]; compared to model control group,significant reduction in staining
same,"corneal epithelial damage score, sodium fluorescein staining","mouse model of dry eye [6]; treatment groups (0.03% and 0.3%), ocular, compared to model group, P<0.001",significant reduction in damage
same,cell viability of HCE cells,HCE cells; 50 μM,significantly higher
same,cell viability of HCE cells,HCE cells; 100 μM,significantly higher
same,cell viability of HCE cells,HCE cells; 200 μM,significantly higher
same,cell viability of HCE cells,HCE cells; 600 μM,significantly reduced
same,concentration that has a proliferation effect on HCE cells,HCE cells; MTS assay,25 to 200 µM and 50 to 200 µM
same,concentration with toxic effect on HCE cells,HCE cells; MTS assay,600 µM
"C[C@H]1COc2c(N3CCN(C)CC3)c(F)cc3c(=O)c(C(=O)O)cn1c23 [levofloxacin, reference compound]",new blood vessels (slit lamp morphology),[3],fewer new blood vessels
same,corneal neovascularization area,[3],smaller
